{"source": "patent US10688116B2", "about": "“Treatment of metabolic disorders in equine animals” (Boehringer Ingelheim Vetmedica GmbH, priority 2014, dated 2020)", "assay": "Physicochemical properties of the crystalline complex", "data": [{"smiles": "N#Cc1ccc([C@@H]2O[C@H](CO)[C@@H](O)[C@H](O)[C@H]2O)cc1Cc1ccc(C2CC2)cc1.O=C(O)[C@@H]1CCCN1", "note": "[crystalline complex]", "values": [{"measurement": "tendency to absorb moisture", "value": "does not show a high tendency to absorb moisture"}, {"measurement": "physical and chemical stability", "setting": "various environmental conditions and during production of a medicament", "value": "high physical and chemical stability"}]}]}
